Target: recombinant DYRK1A kinase (Homo sapiens, UniProt Q13627)
Assay: DYRK1A kinase assay (Ser/Thr 18 peptide Z-lyte FRET)
Type: biochemical
Settings: DYRK1A 0.25 μg/mL, ATP 15 μM, Ser/Thr peptide 18 4 μM, one hour at room temperature, 11-point dose-response from 10 μM
Protocol: Representative compounds were screened using the assay procedure for DYRK1A kinase activity as described below.
Each compound was dissolved in DMSO as a 10 mM stock and used to prepare compound source plates. Serial dilution (1:3, 11-point dose-response curves from 10 μM to 0.00016 μM) and compound transfer was performed using the ECHO 550 (Labcyte, Sunnyvale, CA) into 1536-well black-walled round bottom plates (Corning).
The DYRK1A kinase assay was run using the Ser/Thr 18 peptide Z-lyte assay kit according to manufacturer's instructions (Life Technologies—a Division of Thermo-Fisher). This is a non-radioactive assay using fluorescence resonance energy transfer (FRET) between coumarin and fluorescein to detect kinase activity which is represented as a ratio of coumarin emission/fluorescein emission.
Briefly, recombinant DYRK1A kinase, ATP and Ser/Thr peptide 18 were prepared in 1× Kinase buffer to final concentrations of 0.25 μg/mL, 15 μM, and 4 μM respectively. The mixture was allowed to incubate with the representative compounds for one hour at room temperature. All reactions were performed in duplicate. Unphosphorylated (“0% Control”) and phosphorylated (“100% control”) forms of Ser/Thr 18 served as control reactions. Additionally, an 11-point dose-response curve of Staurosporine (1 uM top) was run to serve as a positive compound control.
After incubation, Development Reagent A was diluted in Development Buffer then added to the reaction and allowed to further incubate for one hour at room temperature. The plate was read at Ex 400 Em 455 to detect the coumarin signal and Ex 400 Em 520 to measure the signal (EnVision Multilabel Plate Reader, PerkinElmer).
The Emission ratio (Em) was calculated as a ratio of the coumarin (C) emission signal (at 445 nm)/Fluorescein (F) emission signal (at 520 nm). The percent phosphorylation was then calculated using the following formula: [1−((Em ratio×F100%)−C100%)/((C0%−C100%)+(Em ratio×(F100%−F0%)))]. Dose-response curves were generated, and inhibitory concentration (IC50) values were calculated using non-linear regression curve fit in the Dotmatics' Studies Software (Bishops Stortford, UK).

Question: How did the IC50 turn out when `CC(=O)N1CC[C@H](Nc2nc(N)c3c(-c4ccc5nccn5n4)c(F)cn3n2)[C@H](F)C1` [Compound 38, 1-((3R,4S)-4-((4-Amino-6-fluoro-5-(imidazo[1,2-b]pyridazin-6-yl)pyrrolo [2,1-f][1,2,4]triazin-2-yl)amino)-3-fluoropiperidin-1-yl)ethan-1-one] was run?
Answer: 3.4 nM

Question: How did the IC50 turn out when `Nc1nc(N[C@H]2CCN(C3COC3)C[C@H]2F)nn2cc(F)c(-c3ccc4nccn4n3)c12` [Compound 39, 6-Fluoro-N2-((3R,4S)-3-fluoro-1-(oxetan-3-yl)piperidin-4-yl)-5-(imidazo[1,2-b]pyridazin-6-yl)pyrrolo[2,1-f][1,2,4]triazine-2,4-diamine] was run?
Answer: 3.1 nM

Question: How did the IC50 turn out when `CN1CC[C@@H](Nc2nc(N)c3c(-c4ccc5nccn5n4)c(F)cn3n2)C(F)(F)C1` [Compound 40, (R)—N2-(3,3-Difluoro-1-methylpiperidin-4-yl)-6-fluoro-5-(imidazo[1,2-b]pyridazin-6-yl)pyrrolo[2,1-f][1,2,4]triazine-2,4-diamine] was run?
Answer: 2.7 nM

Question: For `CC(=O)N1CC[C@@H](Nc2nc(N)c3c(-c4ccc5nccn5n4)c(F)cn3n2)C(F)(F)C1` [Compound 41, (R)-1-(4-((4-Amino-6-fluoro-5-(imidazo[1,2-b]pyridazin-6-yl)pyrrolo[2,1-f][1,2,4]triazin-2-yl)amino)-3,3-difluoropiperidin-1-yl)ethan-1-one], which IC50 is on record?
Answer: 2 nM

Question: Which IC50 does the source give for `Nc1nc(N[C@@H]2CCN(C3COC3)CC2(F)F)nn2cc(F)c(-c3ccc4nccn4n3)c12` [Compound 43, (R)—N2-(3,3-Difluoro-1-(oxetan-3-yl)piperidin-4-yl)-6-fluoro-5-(imidazo [1,2-b]pyridazin-6-yl)pyrrolo[2,1-f][1,2,4]triazine-2,4-diamine] here?
Answer: 3.1 nM

Question: With `CNc1nc(N[C@@H]2CCN(C(C)=O)CC2(F)F)nn2ccc(-c3ccc4nccn4n3)c12` [Compound 46, (R)-1-(3,3-Difluoro-4-((5-(imidazo[1,2-b]pyridazin-6-yl)-4-(methylamino)pyrrolo[2,1-f][1,2,4]triazin-2-yl)amino)piperidin-1-yl)ethan-1-one] as the compound, how does the IC50 read?
Answer: 3 nM

Question: `CNc1nc(N[C@@H]2CCN(S(C)(=O)=O)CC2(F)F)nn2ccc(-c3ccc4nccn4n3)c12` [Compound 48, (R)—N2-(3,3-Difluoro-1-(methylsulfonyl)piperidin-4-yl)-5-(imidazo[1,2-b]pyridazin-6-yl)-N4-methylpyrrolo[2,1-f][1,2,4]triazine-2,4-diamine] was tested. Which IC50 did it give?
Answer: 2.2 nM

Question: For `CNc1nc(N[C@H]2CCN(C(C)=O)C[C@H]2F)nn2cc(F)c(-c3ccc4nccn4n3)c12` [Compound 53, 1-((3R,4S)-3-Fluoro-4-((6-fluoro-5-(imidazo[1,2-b]pyridazin-6-yl)-4-(methylamino)pyrrolo[2,1-f][1,2,4]triazin-2-yl)amino)piperidin-1-yl)ethan-1-one], which IC50 is on record?
Answer: 2.5 nM

Question: For `CNc1nc(N[C@H]2CCN(C3COC3)C[C@H]2F)nn2cc(F)c(-c3ccc4nccn4n3)c12` [Compound 54, 6-Fluoro-N^2-((3R,4S)-3-fluoro-1-(oxetan-3-yl)piperidin-4-yl)-5-(imidazo [1,2-b]pyridazin-6-yl)-N^4-methylpyrrolo[2,1-f][1,2,4]triazine-2,4-diamine], which IC50 is on record?
Answer: 2.4 nM

Question: Which IC50 does the source give for `CNc1nc(N[C@@H]2CCN(C)CC2(F)F)nn2cc(F)c(-c3ccc4nccn4n3)c12` [Compound 55, (R)—N^2-(3,3-Difluoro-1-methylpiperidin-4-yl)-6-fluoro-5-(imidazo[1,2-b]pyridazin-6-yl)-N^4-methylpyrrolo[2,1-f][1,2,4]triazine-2,4-diamine] here?
Answer: 4 nM

Question: How did the IC50 turn out when `CNc1nc(N[C@@H]2CCN(C(C)=O)CC2(F)F)nn2cc(F)c(-c3ccc4nccn4n3)c12` [Compound 56, (R)-1-(3,3-Difluoro-4-((6-fluoro-5-(imidazo[1,2-b]pyridazin-6-yl)-4-(methylamino)pyrrolo[2,1-f][1,2,4]triazin-2-yl)amino)piperidin-1-yl)ethan-1-one] was run?
Answer: 1.4 nM

Question: For `CNc1nc(N[C@@H]2CCN(C3COC3)CC2(F)F)nn2cc(F)c(-c3ccc4nccn4n3)c12` [Compound 58, (R)—N^2-(3,3-Difluoro-1-(oxetan-3-yl)piperidin-4-yl)-6-fluoro-5-(imidazo[1,2-b]pyridazin-6-yl)-N^4-methylpyrrolo[2,1-f][1,2,4]triazine-2,4-diamine], which IC50 is on record?
Answer: 1.9 nM

Question: With `C[C@]1(O)CC[C@H](Nc2nc(N)c3c(-c4ccc5ncn(CCF)c5n4)ccn3n2)CC1` [Compound 112, (1r,4r)-4-((4-Amino-5-(3-(2-fluoroethyl)-3H-imidazo[4,5-b]pyridin-5-yl)pyrrolo[2,1-f][1,2,4]triazin-2-yl)amino)-1-methylcyclohexan-1-ol] as the compound, how does the IC50 read?
Answer: 1.2 nM

Question: With `CN1CC[C@H](Nc2nc(N)c3c(-c4ccc5ncn(CCF)c5n4)ccn3n2)[C@H](F)C1` [Compound 113, N^2-((3R,4S)-3-Fluoro-1-methylpiperidin-4-yl)-5-(3-(2-fluoroethyl)-3H-imidazo[4,5-b]pyridin-5-yl)pyrrolo[2,1-f][1,2,4]triazine-2,4-diamine] as the compound, how does the IC50 read?
Answer: 0.8 nM

Question: How did the IC50 turn out when `COCCN1CC[C@H](Nc2nc(N)c3c(-c4ccc5ncn(CCF)c5n4)ccn3n2)[C@H](F)C1` [Compound 114, N^2-((3R,4S)-3-Fluoro-1-(2-methoxyethyl)piperidin-4-yl)-5-(3-(2-fluoroethyl)-3H-imidazo[4,5-b]pyridin-5-yl)pyrrolo[2,1-f][1,2,4]triazine-2,4-diamine] was run?
Answer: 1.6 nM

Question: With `CC(=O)N1CC[C@H](Nc2nc(N)c3c(-c4ccc5ncn(CCF)c5n4)ccn3n2)[C@H](F)C1` [Compound 115, 1-((3R,4S)-4-((4-Amino-5-(3-(2-fluoroethyl)-3H-imidazo[4,5-b]pyridin-5-yl)pyrrolo[2,1-f][1,2,4]triazin-2-yl)amino)-3-fluoropiperidin-1-yl)ethan-1-one] as the compound, how does the IC50 read?
Answer: 1 nM

Question: For `Nc1nc(N[C@@H]2CCN(C3COC3)C[C@@H]2F)nn2ccc(-c3ccc4ncn(CCF)c4n3)c12` [Compound 116, N^2-((3S,4R)-3-Fluoro-1-(oxetan-3-yl)piperidin-4-yl)-5-(3-(2-fluoroethyl)-3H-imidazo[4,5-b]pyridin-5-yl)pyrrolo[2,1-f][1,2,4]triazine-2,4-diamine], which IC50 is on record?
Answer: 1.6 nM

Question: Which IC50 does the source give for `Nc1nc(N[C@H]2CCN(C3COC3)C[C@H]2F)nn2ccc(-c3ccc4ncn(CCF)c4n3)c12` [Compound 117, N^2-((3R,4S)-3-Fluoro-1-(oxetan-3-yl)piperidin-4-yl)-5-(3-(2-fluoroethyl)-3H-imidazo[4,5-b]pyridin-5-yl)pyrrolo[2,1-f][1,2,4]triazine-2,4-diamine] here?
Answer: 0.9 nM

Question: With `CC(=O)N1CC[C@@H](Nc2nc(N)c3c(-c4ccc5ncn(CCF)c5n4)ccn3n2)C(F)(F)C1` [Compound 118, (R)-1-(4-((4-Amino-5-(3-(2-fluoroethyl)-3H-imidazo[4,5-b]pyridin-5-yl)pyrrolo[2,1-f][1,2,4]triazin-2-yl)amino)-3,3-difluoropiperidin-1-yl)ethan-1-one] as the compound, how does the IC50 read?
Answer: 0.5 nM

Question: For `Nc1nc(N[C@@H]2CCN(C3COC3)CC2(F)F)nn2ccc(-c3ccc4ncn(CCF)c4n3)c12` [Compound 119, (R)—N^2-(3,3-Difluoro-1-(oxetan-3-yl)piperidin-4-yl)-5-(3-(2-fluoroethyl)-3H-imidazo[4,5-b]pyridin-5-yl)pyrrolo[2,1-f][1,2,4]triazine-2,4-diamine], which IC50 is on record?
Answer: 1.4 nM

Question: `CN1CC[C@H](Nc2nc(N)c3c(-c4ccc5ncn(CC(F)F)c5n4)ccn3n2)[C@H](F)C1` [Compound 120, 5-(3-(2,2-Difluoroethyl)-3H-imidazo[4,5-b]pyridin-5-yl)-N^2-((3R,4S)-3-fluoro-1-methylpiperidin-4-yl)pyrrolo[2,1-f][1,2,4]triazine-2,4-diamine] was tested. Which IC50 did it give?
Answer: 0.7 nM

Question: How did the IC50 turn out when `COCCN1CC[C@H](Nc2nc(N)c3c(-c4ccc5ncn(CC(F)F)c5n4)ccn3n2)[C@H](F)C1` [Compound 121, 5-(3-(2,2-difluoroethyl)-3H-imidazo[4,5-b]pyridin-5-yl)-N^2-((3R,4S)-3-fluoro-1-(2-methoxyethyl)piperidin-4-yl)pyrrolo[2,1-f][1,2,4]triazine-2,4-diamine] was run?
Answer: 0.8 nM

Question: How did the IC50 turn out when `Nc1nc(N[C@@H]2CCN(C3COC3)C[C@@H]2F)nn2ccc(-c3ccc4ncn(CC(F)F)c4n3)c12` [Compound 122, 5-(3-(2,2-Difluoroethyl)-3H-imidazo[4,5-b]pyridin-5-yl)-N^2-((3S,4R)-3-fluoro-1-(oxetan-3-yl)piperidin-4-yl)pyrrolo[2,1-f][1,2,4]triazine-2,4-diamine] was run?
Answer: 1.1 nM

Question: For `C[C@]1(O)CC[C@H](Nc2nc(N)c3c(-c4ccc5ncn(CC(F)(F)F)c5n4)ccn3n2)CC1` [Compound 123, (1r,4r)-4-((4-Amino-5-(3-(2,2,2-trifluoroethyl)-3H-imidazo[4,5-b]pyridin-5-yl)pyrrolo[2,1-f][1,2,4]triazin-2-yl)amino)-1-methylcyclohexan-1-ol], which IC50 is on record?
Answer: 1.9 nM
